The source made the active and inactive calls. The rule behind the calls is not given here.
System: PC-12
Assay: Neuroprotective activity against okadaic acid-induced cell injury in rat PC12 cells assessed as cell viability at 10 uM after 48 hrs by MTT assay (reference value: 60.4 +/- 23%)
Assay type: functional
Conditions: not given

Row | Structure (SMILES) | Activity
1 | CC(=O)OC[C@@]12[C@@H](OC(=O)/C=C\c3ccccc3)CC[C@](C)(O)[C@]13OC(C)(C)[C@H](C(=O)[C@H]2OC(=O)c1ccoc1)[C@H]3O | inactive
2 | CC(=O)OC[C@@]12[C@@H](OC(=O)/C=C/c3ccccc3)CC[C@](C)(O)[C@]13OC(C)(C)[C@H]([C@@H](O)[C@H]2OC(=O)c1ccoc1)[C@H]3OC(C)=O | inactive
3 | CC(=O)OC[C@@]12[C@@H](OC(=O)/C=C/c3ccccc3)CC[C@](C)(O)[C@]13OC(C)(C)[C@H]([C@@H](O)[C@H]2O)[C@H]3OC(C)=O | inactive
4 | CC(=O)OC[C@@]12[C@@H](OC(=O)/C=C/c3ccccc3)CC[C@](C)(O)[C@]13OC(C)(C)[C@H](C(=O)[C@H]2OC(=O)c1ccoc1)[C@H]3O | inactive
5 | CC(=O)OC[C@@]12[C@@H](OC(=O)c3ccoc3)CC[C@@H](C)[C@]13OC(C)(C)[C@H]([C@@H](OC(C)=O)[C@H]2OC(=O)c1cccnc1)[C@H]3OC(=O)c1ccoc1 | inactive
6 | CC(=O)OC[C@@]12[C@@H](OC(=O)/C=C/c3ccccc3)CC[C@](C)(O)[C@]13OC(C)(C)[C@H]([C@@H](OC(C)=O)[C@H]2OC(=O)c1ccoc1)[C@H]3O | inactive
7 | CC(=O)OC[C@@]12[C@@H](OC(=O)/C=C\c3ccccc3)CC[C@](C)(O)[C@]13OC(C)(C)[C@H]([C@@H](OC(C)=O)[C@H]2OC(=O)c1ccoc1)[C@H]3O | inactive
8 | CC(=O)O[C@@H]1[C@H]2[C@@H](O)[C@@H](OC(=O)c3ccoc3)[C@]3(CO)[C@@H](OC(=O)/C=C/c4ccccc4)CC[C@](C)(O)[C@@]13OC2(C)C | inactive

Same assay, conditions: PC-12, 48 h, read-out: Activity

Row | Structure (SMILES) | viability at 10 µM [%]
9 | CC(=O)OC[C@@]12[C@@H](OC(C)=O)CC[C@@H](C)[C@]13OC(C)(C)[C@H]([C@@H](OC(C)=O)[C@H]2OC(=O)c1cccnc1)[C@H]3OC(=O)c1ccoc1 | 71.5
10 | CC(=O)OC[C@]12[C@H](OC(C)=O)[C@H](OC(C)=O)[C@@H]3[C@@H](OC(=O)c4ccccc4)[C@@]14OC3(C)COC(=O)c1cccnc1C(C)C(C)C(=O)O[C@@H]([C@H](O)[C@@H]2OC(=O)c1ccccc1)[C@]4(C)O (stereo partly drawn) | 86.2
11 | CC(=O)OC[C@@]12[C@@H](OC(=O)/C=C/c3ccccc3)CC[C@@H](C)[C@]13OC(C)(C)[C@H]([C@@H](OC(C)=O)[C@H]2OC(=O)c1cccnc1)[C@H]3OC(C)=O | 81.2
12 | CC(=O)OC[C@@]12[C@@H](OC(=O)c3ccoc3)CC[C@@H](C)[C@]13OC(C)(C)[C@H]([C@@H](OC(C)=O)[C@H]2OC(=O)c1cccnc1)[C@H]3OC(C)=O | 72.4
13 | CC(=O)OC[C@@]12[C@@H](OC(=O)/C=C\c3ccccc3)CC[C@@H](C)[C@]13OC(C)(C)[C@H]([C@@H](OC(C)=O)[C@H]2OC(=O)c1cccnc1)[C@H]3OC(C)=O | 75.7

From ChEMBL document CHEMBL4138272, “Neuroprotective Dihydroagarofuran Sesquiterpene Derivatives from the Leaves of Tripterygium wilfordii” (2018)
